Results on seven compounds are retold here after ChEMBL document CHEMBL1144833, “Synthesis and evaluation of novel aromatic substrates and competitive inhibitors of GABA aminotransferase” (Bioorg Med Chem Lett, 2008).

For experiment [1], the target named is T1, 4-aminobutyrate aminotransferase, mitochondrial (Homo sapiens, UniProt P80404). Briefly: Inhibition of GABA-AT.
For experiment [2], the target named is T1, 4-aminobutyrate aminotransferase, mitochondrial. In words: Activity at GABA-AT assessed as substrate activity relative to gamma amino butyric acid. Also on record: concentration or dose not given beside the values.

pIC50: −log10 of the molar value.

T1 sequence (P80404 whole entry): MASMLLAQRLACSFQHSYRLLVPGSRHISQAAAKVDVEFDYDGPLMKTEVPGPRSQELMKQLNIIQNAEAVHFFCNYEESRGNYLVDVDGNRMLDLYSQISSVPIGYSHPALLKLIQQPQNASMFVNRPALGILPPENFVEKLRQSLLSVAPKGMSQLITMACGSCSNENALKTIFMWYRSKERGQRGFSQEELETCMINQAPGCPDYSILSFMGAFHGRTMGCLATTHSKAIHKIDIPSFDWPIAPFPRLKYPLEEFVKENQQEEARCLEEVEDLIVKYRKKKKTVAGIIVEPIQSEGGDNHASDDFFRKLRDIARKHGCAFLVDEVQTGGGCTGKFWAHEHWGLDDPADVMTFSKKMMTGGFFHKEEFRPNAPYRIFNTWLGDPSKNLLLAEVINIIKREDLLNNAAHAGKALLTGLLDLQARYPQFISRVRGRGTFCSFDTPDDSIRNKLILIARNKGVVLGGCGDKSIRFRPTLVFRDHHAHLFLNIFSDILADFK

By pIC50 is commonly meant the IC50 on a negative log10 scale, so that one unit is a factor of ten. For the compound `Nc1ccccc1C(=O)O` [ANTHRANILIC ACID], the negative-log IC50 (pIC50) in experiment [1] is under 2.30. Also, the Relative stimulatory activity in experiment [2] was determined as 0%.

The compound `NCc1cccc(C(=O)O)c1` had a negative logarithm of the IC50 (pIC50) in experiment [1] of under 2.30. Besides, the Relative stimulatory activity in experiment [2] is 3.42%.

Regarding `NCc1ccccc1CC(=O)O`, in experiment [1], the negative-log IC50 (pIC50) is under 2.30. Also, in experiment [2], the Relative stimulatory activity amounted to 5.65%.

In turn, `NCc1ccccc1C(=O)O` had a negative-log IC50 (pIC50) in experiment [1] of under 2.30. Also, the Relative stimulatory activity in experiment [2] is 0%.

Take `Nc1cccc(CC(=O)O)c1`: the pIC50 in experiment [1] was under 2.30. Further, the Relative stimulatory activity in experiment [2] stood at 0%.

Take `NCc1cccc(CC(=O)O)c1`: in experiment [1], the negative-log IC50 (pIC50) was under 2.30. The Relative stimulatory activity in experiment [2] stood at 0.78%.

Regarding `Nc1cccc(C(=O)O)c1` [3-AMINOBENZOIC ACID], the pIC50 in experiment [1] was under 2.30. Besides, the Relative stimulatory activity in experiment [2] turned out to be 0%.
